Experiments:
Format in all cases: cell-based
[1] = biological target: T1, P2X7 receptor (Rattus norvegicus, UniProt Q64663); test: YO-PRO-1 uptake, cell counts, in HEK cells stably expressing P2X7 receptor; settings: incubation with BzATP for 3 to 5 min, low concentration of divalent cations
T1 construct: yielding a construct that encoded the entire P2X7 protein; expressed in transfected cells
T1 sequence (Q64663 1-595): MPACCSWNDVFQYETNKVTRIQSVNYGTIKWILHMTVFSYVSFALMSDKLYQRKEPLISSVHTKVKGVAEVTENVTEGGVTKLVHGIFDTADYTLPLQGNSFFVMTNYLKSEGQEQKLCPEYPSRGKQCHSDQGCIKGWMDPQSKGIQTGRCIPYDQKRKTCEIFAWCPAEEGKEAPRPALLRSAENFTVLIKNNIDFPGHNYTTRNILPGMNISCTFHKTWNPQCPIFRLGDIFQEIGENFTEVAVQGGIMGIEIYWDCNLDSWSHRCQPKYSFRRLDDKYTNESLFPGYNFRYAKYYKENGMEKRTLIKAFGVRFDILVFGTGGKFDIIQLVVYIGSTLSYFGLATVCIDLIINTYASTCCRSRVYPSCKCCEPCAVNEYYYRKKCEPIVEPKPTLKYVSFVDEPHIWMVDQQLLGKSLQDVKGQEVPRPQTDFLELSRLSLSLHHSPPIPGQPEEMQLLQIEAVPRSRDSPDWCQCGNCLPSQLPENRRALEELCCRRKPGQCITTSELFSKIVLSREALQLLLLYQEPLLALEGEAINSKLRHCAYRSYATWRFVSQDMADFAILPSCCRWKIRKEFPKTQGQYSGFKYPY
Method: (§1) YO-PRO-1 (10 μM; Molecular Probes, Eugene, Oreg.) was added to the superfusion fluid during electrophysiological recordings 3 to 6 min before switching to low divalent solution and washed out upon switching back to normal divalent solution, after which the fluorescent lamp was turned on and cells were examined with a fluorescein isothiocyanate filter. For cell counts, 500 cells per cover slip were counted in each case.

[2] = biological target: T1, P2X7 receptor; test: Whole-cell recordings of agonist-evoked currents in HEK293 cells transfected with rat P2X7 cDNA (Example 2); settings: inward currents, brief application (0.5 to 2 s)
[3] = biological target: T2, P2X7ΔC receptor (Rattus norvegicus, UniProt Q64663); test: YO-PRO-1 uptake in HEK cells expressing P2X7ΔC receptor; settings: low divalent solution, BzATP 300 μM
T2 construct: the resulting protein (P2X7ΔC) was P2X7 (1-418); expressed in transfected cells; host or cells: HEK293 (transient)
T2 sequence (Q64663 1-418): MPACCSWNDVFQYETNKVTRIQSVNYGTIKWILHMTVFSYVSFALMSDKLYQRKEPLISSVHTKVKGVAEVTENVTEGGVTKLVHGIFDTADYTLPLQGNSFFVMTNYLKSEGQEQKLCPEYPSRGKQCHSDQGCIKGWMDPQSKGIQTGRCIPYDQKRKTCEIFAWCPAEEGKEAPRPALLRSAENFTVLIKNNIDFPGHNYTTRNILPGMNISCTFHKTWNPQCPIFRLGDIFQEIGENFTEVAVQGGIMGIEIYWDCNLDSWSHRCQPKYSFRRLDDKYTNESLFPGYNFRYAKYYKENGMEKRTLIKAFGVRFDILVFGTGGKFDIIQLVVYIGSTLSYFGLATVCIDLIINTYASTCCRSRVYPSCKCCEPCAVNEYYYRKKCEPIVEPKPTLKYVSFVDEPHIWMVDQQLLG
Method: as §1

With `Nc1ncnc2c1ncn2[C@@H]1O[C@H](COP(=O)(O)OP(=O)(O)OP(=O)(O)O)[C@@H](OC(=O)c2ccc(C(=O)c3ccccc3)cc2)[C@H]1O` [BzATP, 3′-O-(4-benzoyl)benzoyl ATP] the “stably transfected cells that took up YO-PRO-1” value [1] was > 85%, the “agonist order of potency” value [2] was “BzATP>>ATP>2MeSATP>ATP-γ-S>>ADP” and the “uptake of YO-PRO-1 induced by BzATP” value [3] was “no uptake of YO-PRO-1 was induced”.

From patent publication US6509163B1, “Methods of screening modulators of mammalian P2X7 purinergic receptors” (Glaxo Group Limited, priority 1997, dated 2003)
